Experimental findings from paper PMC2362793, “A novel class of lipophilic quinazoline-based folic acid analogues: cytotoxic agents with a folate-independent locus” (British Journal of Cancer, 1999) are described below.

Assay [1] addresses T1, thymidylate synthase (TS) (Mus musculus, UniProt P07607).
T1 construct: gene Tyms; enzyme partially purified from the L1210:C15 TS-overproducing cell line
Briefly: inhibition of isolated mouse TS activity and inhibition kinetics (IC50 […], Kies […]). Type of assay: biochemical.

The target in assay [2] is T1, thymidylate synthase (TS). As to the kind of experiment: inhibition of isolated mouse TS activity at […] (R,S)-5,10-CH2FH4. Type of assay: biochemical.

The structures appear in SMILES notation.

T1 sequence (P07607 whole entry): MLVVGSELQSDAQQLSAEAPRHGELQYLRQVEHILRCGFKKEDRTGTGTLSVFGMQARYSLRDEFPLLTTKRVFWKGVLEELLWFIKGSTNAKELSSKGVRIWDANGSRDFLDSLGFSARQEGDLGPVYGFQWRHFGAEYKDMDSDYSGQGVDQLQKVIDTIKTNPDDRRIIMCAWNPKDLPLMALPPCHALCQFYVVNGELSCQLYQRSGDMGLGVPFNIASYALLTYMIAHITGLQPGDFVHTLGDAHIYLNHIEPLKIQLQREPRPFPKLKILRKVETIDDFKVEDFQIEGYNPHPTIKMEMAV

As for `C#CCN(Cc1cc2c(=O)[nH]c(C)nc2cc1Br)c1ccc(C(=O)NCc2ccccn2)cc1` [CB300179], the Ki in assay [1] stood at 160 nM.
The compound `C#CCN(Cc1cc2c(=O)[nH]c(C)nc2cc1Br)c1ccc(C(=O)NCc2ccncc2)cc1` [CB300189] registered an IC50 in assay [2] of 250 nM.
